Values after ≈ are worked out from the molar mass of the structure shown. Like-named read-outs stand apart in the source and are kept apart here.
Columns and labels:
Assay type in all cases: cell-based
[1] = tested on: Micrococcus luteus ATCC 10240; assay: Broth microdilution MIC/MBC
Text: (§1) In vitro antimicrobial activity assays - Methodology
(§2) The examined compounds 1 - 24 were screened in vitro for antibacterial and antifungal activities using the broth microdilution method according to procedure reported earlier by our research group and European Committee on Antimicrobial Susceptibility Testing (EUCAST) and Clinical and Laboratory Standards Institute (CLSI) guidelines against a panel of reference and clinical or saprophytic strains of microorganisms, in-cluding Gram-positive bacteria, Staphylococcus aureus ATCC 43300 (Methicillin Resistant S. aureus – MRSA), Staphylococcus aureus ATCC 29213 (Methicillin Susceptible S. aureus – MSSA), Staphylococcus epidermidis ATCC 12228, Enterococcus faecalis ATCC 29212, Micro-coccus luteus ATCC 10240, Bacillus subtilis ATCC 6633 and Bacillus cereus ATCC 10876), Gram-negative bacteria (Bordetella bronchiseptica ATCC 4617, Escherichia coli ATCC 25922, Klebsiella pneumoniae ATCC 13883, Proteus mirabilis ATCC 12453, Salmonella typhimurium ATCC 14028 and Pseudomonas aeruginosa ATCC 9027) and fungi belonging to yeasts (Can-dida albicans ATCC 10231, Candida albicans ATCC 2091, Candida parapsilosis ATCC 22019, Candida glabrata ATCC 90030 and Candida krusei ATCC 14243). The microorganisms be-longing to ATCC came from American Type Culture Collection, routinely used for the evaluation of antimicrobials. […]
(§3) Samples containing examined compounds were dissolved in dimethyl sulfoxide (DMSO). […]
(§4) Subsequently, the MIC (Minimal Inhibitory Concentration) of the compounds was ex-amined by the microdilution broth method, using their two-fold dilutions in Mueller- […]
(§5) Hinton broth or (for bacteria) and RPMI 1640 broth with MOPS (for fungi) prepared in 96-well polystyrene plates. Final concentrations of the compounds ranged from 1000 to 0.488 µg/ml. Microbial suspensions were prepared in 0.85% NaCl with an optical density of 0.5 McFarland standard. Next each bacterial or fungal suspension was added per each well containing broth and various concentrations of the examined compounds. After incuba-

[2] = tested on: Proteus mirabilis ATCC 12453; assay: Broth microdilution MIC/MBC; conditions: ATCC12453
Text: as §1, §2, §3, §4, §5

[3] = tested on: Salmonella typhimurium ATCC 14028; assay: Broth microdilution MIC/MBC; conditions: Salmonella enterica
Text: as §1, §2, §3, §4, §5

[4] = tested on: Staphylococcus aureus ATCC 43300; assay: Broth microdilution MIC/MBC; conditions: Staphylococcus aureus ATCC 43300 (MRSA)
Text: as §1, §2, §3, §4, §5

[5] = tested on: Staphylococcus epidermidis ATCC 12228; assay: Broth microdilution MIC/MBC
Text: as §1, §2, §3, §4, §5

[6] = tested on: Bacillus subtilis ATCC 6633; assay: Broth microdilution MIC/MBC
Text: Detailed procedures are presented in the Supplementary Materials. […]
as §1
as §2, with “antimicrobials. All the used microbial cultures were first subcultured on nu-trient agar or Sabouraud agar at 35°C for 18-24 h or 30°C for 24-48 h for bacteria and fungi,” for “antimicrobials.”
(§6) The surface of Mueller-Hinton agar (for bacteria) and RPMI 1640 with MOPS (for fungi) were inoculated with the suspensions of bacterial or fungal species. Microbial suspensions were prepared in sterile saline with an optical density of McFarland standard scale 0.5.
(§7) Samples containing examined compounds were dissolved in dimethyl sulfoxide (DMSO).
(§8) Furthermore, bacterial and fungal suspensions were put onto Petri dishes with solid me-dia containing 2 mg/mL of the tested compounds followed incubation at 37°C for 24h and 30°C for 48h for bacteria and fungi, respectively. The inhibition of microbial growth was judged by comparison with a control culture prepared without any sample tested. Ciprof-loxacin, vancomycin, nitrofurantoin, cefuroxime, ampicillin or nystatin (Sigma) were used as a reference antibacterial or antifungal compounds, respectively.
as §4, §5

[7] = tested on: Bacillus cereus ATCC 10876; assay: Broth microdilution MIC/MBC
Text: as §1
as §2, with “antimicrobials. All the used microbial cultures were first subcultured on nu-trient agar or Sabouraud agar at 35°C for 18-24 h or 30°C for 24-48 h for bacteria and fungi,” for “antimicrobials.”
as §6, §7, §8, §4, §5

[8] = tested on: Bordetella bronchiseptica ATCC 4617; assay: Broth microdilution MIC/MBC; conditions: ATCC4617
Text: as §1
as §2, with “antimicrobials. All the used microbial cultures were first subcultured on nu-trient agar or Sabouraud agar at 35°C for 18-24 h or 30°C for 24-48 h for bacteria and fungi,” for “antimicrobials.”
as §6, §7, §8, §4, §5

[9] = tested on: Escherichia coli ATCC 25922; assay: Broth microdilution MIC/MBC; conditions: ATCC25922
Text: as §1
as §2, with “antimicrobials. All the used microbial cultures were first subcultured on nu-trient agar or Sabouraud agar at 35°C for 18-24 h or 30°C for 24-48 h for bacteria and fungi,” for “antimicrobials.”
as §6, §7, §8, §4, §5

[10] = tested on: Klebsiella pneumoniae ATCC 13883; assay: Broth microdilution MIC/MBC; conditions: ATCC13883
Text: as §1
as §2, with “antimicrobials. All the used microbial cultures were first subcultured on nu-trient agar or Sabouraud agar at 35°C for 18-24 h or 30°C for 24-48 h for bacteria and fungi,” for “antimicrobials.”
as §6, §7, §8, §4, §5

[11] = tested on: Candida albicans ATCC 10231; assay: Broth microdilution MIC/MFC
Text: as §1
as §2, with “antimicrobials. All the used microbial cultures were first subcultured on nu-trient agar or Sabouraud agar at 35°C for 18-24 h or 30°C for 24-48 h for bacteria and fungi,” for “antimicrobials.”
as §6, §7, §8, §4, §5

[12] = tested on: Candida albicans ATCC 2091; assay: Broth microdilution MIC/MFC
Text: as §1
as §2, with “antimicrobials. All the used microbial cultures were first subcultured on nu-trient agar or Sabouraud agar at 35°C for 18-24 h or 30°C for 24-48 h for bacteria and fungi,” for “antimicrobials.”
as §6, §7, §8, §4, §5

[13] = tested on: Candida glabrata ATCC 90030; assay: Broth microdilution MIC/MFC
Text: as §1
as §2, with “antimicrobials. All the used microbial cultures were first subcultured on nu-trient agar or Sabouraud agar at 35°C for 18-24 h or 30°C for 24-48 h for bacteria and fungi,” for “antimicrobials.”
as §6, §7, §8, §4, §5

[14] = tested on: Candida krusei ATCC 14243; assay: Broth microdilution MIC/MFC
Text: as §1
as §2, with “antimicrobials. All the used microbial cultures were first subcultured on nu-trient agar or Sabouraud agar at 35°C for 18-24 h or 30°C for 24-48 h for bacteria and fungi,” for “antimicrobials.”
as §6, §7, §8, §4, §5

[15] = tested on: Candida parapsilosis ATCC 22019; assay: Broth microdilution MIC/MFC
Text: as §1
as §2, with “antimicrobials. All the used microbial cultures were first subcultured on nu-trient agar or Sabouraud agar at 35°C for 18-24 h or 30°C for 24-48 h for bacteria and fungi,” for “antimicrobials.”
as §6, §7, §8, §4, §5

[16] = tested on: Enterococcus faecalis ATCC 29212; assay: Broth microdilution MIC/MBC
Text: as §1
as §2, with “antimicrobials. All the used microbial cultures were first subcultured on nu-trient agar or Sabouraud agar at 35°C for 18-24 h or 30°C for 24-48 h for bacteria and fungi,” for “antimicrobials.”
as §6, §7, §8, §4, §5

O=C1CN(/N=C/c2ccc([N+](=O)[O-])o2)C(=O)N1 [NIT, nitrofurantoin, reference compound]
MIC [1]: 62.5 µg/mL (≈ 262 µM)
MBC ([1]; ATCC10240): 62.5 µg/mL (≈ 262 µM)
MIC ([1]; ATCC10240, read-out: MIC): 62.5 µg/mL (≈ 262 µM)
MBC [2]: 125 µg/mL (≈ 525 µM)
MIC [2]: 62.5 µg/mL (≈ 262 µM)
MBC [3]: 62.5 µg/mL (≈ 262 µM)
MIC [3]: 31.2 µg/mL (≈ 131 µM)
MBC [4]: 15.6 µg/mL (≈ 65.6 µM)
MIC [4]: 7.81 µg/mL (≈ 32.8 µM)
MIC [5]: 3.91 µg/mL (≈ 16.4 µM)
MBC ([5]; ATCC12228): 7.81 µg/mL (≈ 32.8 µM)
MIC ([5]; ATCC12228, read-out: MIC): 3.91 µg/mL (≈ 16.4 µM)
MIC [6]: 3.91 µg/mL (≈ 16.4 µM)
MBC ([6]; ATCC6633): 3.91 µg/mL (≈ 16.4 µM)
MIC ([6]; ATCC6633, read-out: MIC): 3.91 µg/mL (≈ 16.4 µM)
MIC [7]: 7.81 µg/mL (≈ 32.8 µM)
MBC ([7]; ATCC10876): 15.6 µg/mL (≈ 65.6 µM)
MIC ([7]; ATCC10876, read-out: MIC): 7.81 µg/mL (≈ 32.8 µM)
MBC [8]: > 1000 µg/mL
MIC [8]: 125 µg/mL (≈ 525 µM)
MBC [9]: 15.6 µg/mL (≈ 65.6 µM)
MIC [9]: 7.81 µg/mL (≈ 32.8 µM)
MBC [10]: 31.2 µg/mL (≈ 131 µM)
MIC [10]: 15.6 µg/mL (≈ 65.6 µM)

C[C@@H]1[C@H](O)[C@@H](C)/C=C/C=C/CC/C=C/C=C/C=C/C=C/C(O[C@H]2O[C@H](C)[C@@H](O)[C@H](N)[C@@H]2O)CC2O[C@](O)(CC(O)C(O)CCC(O)CC(O)CC(O)CC(=O)O[C@H]1C)CC(O)C2C(=O)O (stereo partly drawn) [NY, nystatin, reference compound]
MFC [11]: 0.48 µg/mL (≈ 0.518 µM)
MFC/MIC [11]: 1
MIC [11]: 0.48 µg/mL (≈ 0.518 µM)
MFC [12]: 0.24 µg/mL (≈ 0.259 µM)
MFC/MIC [12]: 1
MIC [12]: 0.24 µg/mL (≈ 0.259 µM)
MFC [13]: 0.48 µg/mL (≈ 0.518 µM)
MFC/MIC [13]: 2
MIC [13]: 0.24 µg/mL (≈ 0.259 µM)
MFC [14]: 0.24 µg/mL (≈ 0.259 µM)
MFC/MIC [14]: 1
MIC [14]: 0.24 µg/mL (≈ 0.259 µM)
MFC [15]: 0.48 µg/mL (≈ 0.518 µM)
MFC/MIC [15]: 2
MIC [15]: 0.24 µg/mL (≈ 0.259 µM)

CN[C@H](CC(C)C)C(=O)N[C@H]1C(=O)N[C@@H](CC(N)=O)C(=O)N[C@H]2C(=O)N[C@H]3C(=O)N[C@H](C(=O)N[C@H](C(=O)O)c4cc(O)cc(O)c4-c4cc3ccc4O)[C@H](O)c3ccc(c(Cl)c3)Oc3cc2cc(c3O[C@@H]2O[C@H](CO)[C@@H](O)[C@H](O)[C@H]2O[C@H]2C[C@](C)(N)[C@H](O)[C@H](C)O2)Oc2ccc(cc2Cl)[C@H]1O [VA, vancomycin, reference compound]
MBC [16]: 1.95 µg/mL (≈ 1.35 µM)
MBC/MIC [16]: 2
MIC [16]: 0.98 µg/mL (≈ 0.676 µM)
